In US10238680B2, “D-amino acid phosphoramidate pronucleotides of halogeno pyrimidine compounds for liver disease” (priority 2013, dated 2019):

What was measured:
HCV polymerase S282T = target: T1, HCV polymerase S282T (Hepatitis C virus genotype 1b, UniProt Q9WMX2, S2701T); assay: HCV polymerase enzyme assay, S282T; type: biochemical
T1 construct: approximately 65 kDa HCV genotype 1b NS5B protein were used to generate recombinant HCV polymerases (with a deletion of the 21 carboxy terminal amino acids); made in house

[1] = target: T2, wild-type HCV genotype 1b NS5B polymerase (Hepatitis C virus genotype 1b, UniProt Q9WMX2); assay: HCV polymerase enzyme assay, wild-type; type: biochemical
T2 construct: approximately 65 kDa HCV genotype 1b NS5B protein were used to generate recombinant HCV polymerases (with a deletion of the 21 carboxy terminal amino acids); made in house
Description: Test compounds in the form of nucleoside triphosphates were examined for inhibitory activity against purified HCV polymerase in a standard assay. Bacterial expression constructs encoding the approximately 65 kDa HCV genotype 1b NS5B protein were used to generate recombinant HCV polymerases (with a deletion of the 21 carboxy terminal amino acids). The wild-type genotype 1b protein was expressed and purified for use in the enzymatic activity assay.
The enzymatic activity assay measured the inhibitory effect of increasing concentrations of test compound on the incorporation of α-[^33P]-labeled nucleotide into trichloroacetic acid-precipitable material. Recombinant polymerase and synthetic RNA template were combined in reaction buffer containing three unlabeled ribonucleoside triphosphates, one α-[^33P]-labeled ribonucleosidee triphosphate and eight concentrations of test compound in three-fold dilutions. Reactions were incubated for two hours at 30° C.
Reactions were terminated by the addition of ice-cold trichloroacetic acid and sodium pyrophosphate to promote precipitation of newly-synthesized ribonucleic acid. Precipitable material from the reactions was collected by filtration onto 96-well filter plates, washed extensively with water, and quantified by liquid scintillation.
The inhibitory activity of test compounds was determined by fitting results to dose-response curves using XLfit software.

SMILES | IC50 (HCV polymerase S282T) [nM] | IC50 [1] [nM]
C[C@@]1(F)[C@H](O)[C@@H](COP(=O)(O)OP(=O)(O)OP(=O)(O)O)O[C@H]1n1cc(F)c(=O)[nH]c1=O [Compound 304] | 1000 to 10000 | < 250
C[C@@]1(Cl)[C@H](O)[C@@H](COP(=O)(O)OP(=O)(O)OP(=O)(O)O)O[C@H]1n1cc(F)c(N)nc1=O [Compound 303] | – | 250 to 1000
C[C@@]1(Cl)[C@H](O)[C@@H](COP(=O)(O)OP(=O)(O)OP(=O)(O)O)O[C@H]1n1cc(F)c(=O)[nH]c1=O [Compound 301] | – | 250 to 1000
C[C@@]1(O)[C@H](O)[C@@H](COP(=O)(O)OP(=O)(O)OP(=O)(O)O)O[C@H]1n1cc(F)c(N)nc1=O [Compound 302] | – | < 250
